Earlier results on two compounds are cited in patent publication US20120059599A1, “HYBRID FRAGMENT-LIGAND MODELING FOR C[…] COMPOUNDS” (UNIVERSITY OF LOUISVILLE, priority 2010, published 2012).

For one data set, the system named is Salmonella. The note with it: reported in the CPDB.
In the next data set the test system is humans. As to conditions: IARC.
Another data set deals with experimental animals. The note with it: IARC.
In a further data set the test system is estrogen receptor. As to conditions: has been demonstrated.
For data set [1] the following is noted: has been demonstrated.
The test system of another data set is mammary. The note with it: reported in the CPDB.

Regarding `CCNc1nc(Cl)nc(NC(C)C)n1` [Atrazine], in the data set with Salmonella, the Salmonella mutagenicity result was “non-mutagen”.
As for `Cn1c(N)nc2ncc(-c3ccccc3)cc21` [PhIP, 2-amino-1-methyl-6-phenylimidazo[4,5-b]pyridine], in the data set with humans, the “evidence to determine carcinogenicity in humans” value is “inadequate evidence”. In addition, in the data set with experimental animals, the “evidence for carcinogenicity in experimental animals” value is given as “antiquated evidence”. For the same compound, in the data set with Salmonella, the Salmonella mutagenicity entry was “mutagen”. For the same compound, the estrogen receptor ligand result in the data set on estrogen receptor is listed as “estrogen receptor ligand”. Besides, the genotoxic carcinogen entry in data set [1] is “genotoxic carcinogen”. Moreover, in the data set on mammary, the mammary carcinogenicity entry is reported as “mammary carcinogen”.
